# pIC50: −log10 of the molar value.
# How the values were obtained:
# Melanocytes = assay: UVA-induced delayed formation of CPDs (dCPDs) in melanocytes; type: cell-based; details: 25 μg/ml, UVA irradiation first then product added
# Description: A second study was carried out, similar to the first, except that this time the analysis was in assessing the efficacy, if any, of the presently taught aryl alkanones in reducing UVA-induced delayed formation of CPDs (dCPDs).
# LAMC1 = assay: PCR array gene expression, LAMC1; type: cell-based
# From the text: (§1) In light of the efficacy of the aryl alkanones ire addressing many of the molecular/biomolecular processes damaged by UV exposure, a study was undertaken to assess whether these compounds would also be effective in addressing symptoms associated with non-UV induced skin aging including chronological aging as well as disease conditions that likewise adversely affect skin processes. The studies conducted involves DNA microarray, PCR array, cell culture, enzyme inhibitory activity.
# TIMP3 = assay: DNA microarray gene expression, TIMP3; type: cell-based
# From the text: as §1
# Keratinocytes = assay: UVA- and UVB-induced formation of immediate CPDs (iCPDs) in keratinocytes; type: cell-based; details: 25 μg/ml
# Description: Given the significance of CPDs in skin aging and damage, a study was undertaken to determine whether compounds of the present invention have the ability to directly protect the genome of skin cells from the mutagenic effect of UV light as evidenced by CPDs inhibition. The study was conducted in accordance with the method described by Mitchell et. al. [Mitchell, D L, The relative cytotoxicity of (6-4) photoproducts and cyclobutane dimers in mammalian cells. Photochem Photobiol, 48(1):51-57, 1988)] pursuant to which UVA- and UVB-induced formation of immediate CPDs (iCPDs) were determined.
# COL14A1 = assay: DNA microarray gene expression, COL14A1; type: cell-based
# From the text: as §1
# ITGA4 = assay: DNA microarray gene expression, ITGA4; type: cell-based
# From the text: as §1
# MMP-12 = MMP-12 (Homo sapiens, UniProt P39900); assay: MMP-12 (Elastase) inhibition; type: biochemical; details: read-out: Inhibitory concentration (IC50), MMP-12
# Chain of MMP-12 (P39900 106-470): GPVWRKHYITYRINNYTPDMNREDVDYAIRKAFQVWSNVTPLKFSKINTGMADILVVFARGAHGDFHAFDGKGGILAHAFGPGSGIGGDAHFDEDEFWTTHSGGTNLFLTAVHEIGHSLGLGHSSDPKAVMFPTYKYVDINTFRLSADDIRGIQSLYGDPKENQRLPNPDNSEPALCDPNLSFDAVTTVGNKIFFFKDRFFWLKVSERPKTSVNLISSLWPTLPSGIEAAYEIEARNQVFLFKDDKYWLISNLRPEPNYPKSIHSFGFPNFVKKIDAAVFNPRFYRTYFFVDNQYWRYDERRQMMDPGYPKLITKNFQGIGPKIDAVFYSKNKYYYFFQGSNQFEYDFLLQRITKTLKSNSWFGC
# Description: The methodology for the study of MMP-12 activity was as follows: • A 0.1 g sample of Compound 1 was dissolved in 1 ml DMSO, then it was diluted 100× with 1.4% randomly methylated cyclodextrin in Iris buffer (50 mM Tris pH 7.5, 150 mM NaCl, 2 mM CaCl2, 5μ ZnSO4, 0.01% Brij-35) to make a stock solution. For the analysis, different concentrations of Compound 1 were used to determine the IC50. In the well: 0.2 mM substrate, 0.25 μg/ml enzyme, and sample were mixed and read according to the reference (TSA Thring et al. BMC Complementary and Alternate Medicine, 9, 27, 2009; https://doi.org/10.1186/1472-6882-9-27)
# COL11A2 = assay: DNA microarray gene expression, COL11A2; type: cell-based
# From the text: as §1
# ITGB3 = assay: PCR array gene expression, ITGB3; type: cell-based
# From the text: as §1
# Collagen type 3 = assay: Collagen 3 boosting in human dermal fibroblasts; type: cell-based; details: HDF, incubation time of 6 days
# Description: In this study, an investigation was performed in relation to the ability, if any, of the aryl alkanones to boost the production of Collagens 1, 3 and 4 proteins. The study was conducted using human fibroblasts in accordance with the method of J Dobak et at (J Dobak, J Grzybowski, F T Liu, B Landon, M Dobke, 1, 25-Dihydroxyvitamin D3 increases collagen production in dermal fibroblasts, J Dermatol Sci 1994; 8:18-24, 1994). In this study, the cells used were human dermal fibroblasts (HDF), passage 12 (Cell Applications, San Diego, Calif.) which underwent an incubation time of 6 days.
# ELN = assay: DNA microarray gene expression, ELN; type: cell-based
# From the text: as §1
# human dermal fibroblasts = assay: UVA-induced mitochondrial damage measured by ATP production (Mitochondrial ToxGlo Assay); type: cell-based; details: 24 h pre-incubation
# Description: The study was conducted in accordance with the protocols of Berridge et al, (M V Berridge & A S Tan, Characterization of the cellular reduction of 3-(4,5-dimethylthiazol-2-yl)-2,5-diphenyltetrazolium bromide (MTT): subcellular localization, substrate dependence, and involvement of mitochondrial electron transport in MTT reduction, Arch. Biochem. Biophys. 303:474-482, 1993) and Voigt (W Voigt, Sulforhodamine B assay and chemosensitivity, Methods Mol Med, 110:39-48, 2005). Cellular metabolism is determined using the MTT assay to measure the activity of mitochondrial dehydrogenases, such as succinate dehydrogenase, which are implicated in the respiratory electron transport chain in mitochondria [M V Berridge & Tan Biochem Biophys, 303:474-482, 1993]. Additionally, the samples were subject to the Mitochondrial ToxGlo Assay (Promega Technical Manual, G8000 and G8001), which is a cell-based assay method that has been developed to quantify potential mitochondrial dysfunction as a result of xenobiotic exposure, using a sequential-addition, multiplexed chemistry.
# Table 8 presents the result on the effect of UVA radiation on cell metabolism 3 hours after irradiation. As indicated, Compound 1 improves cell metabolism, even at a very low use concentration. Table 9 presents the effect of 24 hour pre-incubation on UVA-induced mitochondrial damage measured by ATP production in human dermal fibroblasts. […] Finally. Table 10 presents the effect of 24 hour pre-incubation on UVA-induced plasma membrane disruption in human dermal fibroblasts. As indicated, Compound 1 almost completely reversed plasma membrane disruption, again at a very low use concentration.
# MMP3 = assay: PCR array gene expression, MMP3; type: cell-based
# From the text: as §1
# COL11A1 = assay: DNA microarray gene expression, COL11A1; type: cell-based
# From the text: as §1
# MMP-1 enzyme = biological target: T1, MMP-1 enzyme (Homo sapiens, UniProt P03956); assay: MMP-1 inhibition; type: biochemical; details: read-out: Inhibitory concentration (IC50), MMP-1
# T1 construct: purchased Anaspec
# T1 sequence (P03956 100-469, species assumed): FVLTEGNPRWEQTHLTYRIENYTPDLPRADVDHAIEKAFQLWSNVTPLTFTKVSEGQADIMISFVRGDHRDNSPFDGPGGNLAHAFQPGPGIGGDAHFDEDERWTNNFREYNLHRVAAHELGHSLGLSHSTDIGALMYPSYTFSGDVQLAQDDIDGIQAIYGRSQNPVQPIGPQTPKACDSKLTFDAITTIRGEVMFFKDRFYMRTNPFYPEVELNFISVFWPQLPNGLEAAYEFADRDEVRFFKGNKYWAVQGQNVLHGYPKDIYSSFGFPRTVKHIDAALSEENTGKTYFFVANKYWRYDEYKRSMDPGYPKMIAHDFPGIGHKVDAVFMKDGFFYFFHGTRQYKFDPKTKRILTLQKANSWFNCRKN
# Description: Another study was conducted in which the elastin and MMP activity of Compound 1 was evaluated. The methodology for the study of MMP-1 and MMP-3 activity was as follows: • A 0.1 g sample of Compound 1 was dissolved in 1 ml DMSO, then it was diluted 100× with Tris buffer (50 mM Iris pH 7.5, 150 mM NaCl, 2 mM CaCl2, 5μ ZnO4, 0.01% Brij-35) to make a stock solution. For the analysis, different concentrations of Compound 1 were used to determine the IC50. The sample and 100 ng/ml MMP-1 enzyme (Anaspec) or MMP-3 enzyme (Anaspec) were incubated at 37° C. for 10 minutes before the addition of 2.25 μM PEPDAB008 substrate (Biozyme). The fluorescence signal was monitored at excitation of 485 nm and emission of 530 nm.
smiles,measurement,setting,value
"COc1cc(CC(C(C)=O)C(C)=O)ccc1O [Compound 1, Acetyl Zingerone]","UVA/% Reduction in dCPDs vs. control, 1 hr.",Melanocytes; 1 hr.,1 hr.: ↓70%
same,"UVA/% Reduction in dCPDs vs. control, 2 hr.",Melanocytes; 2 hr.,2 hr.: ↓25%
same,"UVA/% Reduction in dCPDs vs. control, 4 hr.",Melanocytes; 4 hr.,4 hr.: ~0%
same,"PCR array, LAMC1 gene expression",LAMC1,+2.0
same,"Microarray, TIMP3 gene expression",TIMP3,+5.1
same,UVA/% Reduction in iCPDs vs. Control,Keratinocytes; UVA,73%
same,UVB/% Reduction iCPDs vs. Control,Keratinocytes; UVB,44%
same,"Microarray, COL14A1 gene expression",COL14A1,+4.3
same,"Microarray, ITGA4 gene expression",ITGA4,+1.6
same,pIC50,MMP-12,2.97
same,"Microarray, COL11A2 gene expression",COL11A2,+5.2
same,"PCR array, ITGB3 gene expression",ITGB3,+2.0
same,% Collagen 3 boosting,Collagen type 3; 50 μg/ml,111%
same,% Collagen 3 boosting,Collagen type 3; 100 μg/ml,146%
same,"Microarray, ELN gene expression",ELN,+1.7
same,ATP-related chemoluminescence (% Control),human dermal fibroblasts; 6.25 ug/ml,94 % Control
same,Comments: % damage,human dermal fibroblasts; 6.25 ug/ml,Only 6%
same,ATP-related chemoluminescence (% Control),human dermal fibroblasts; 12.5 ug/ml,87 % Control
same,Comments: % damage,human dermal fibroblasts; 12.5 ug/ml,Only 13%
same,"PCR array, MMP3 gene expression",MMP3,−2.5
same,"Microarray, COL11A1 gene expression",COL11A1,+1.6
same,pIC50,MMP-1 enzyme,2.38
